The values below come from patent EP0085866A1, “Derivatives of benzo-1,2-thiazine-1,1-dioxide, a process for their preparation and pharmaceutical compositions containing the same” (priority 1982, dated 1983).

Data set [1] in a line: Acute toxicity by single oral administration. Format: in vivo. The settings on record: mouse, in vivo. The method, then:
(§1) The toxicity by single administration has been determined by oral route in male mice IVA:NMRI (SPF), fasting, with water ad libitum 18 hours before the experiment. The substances under exam were suspended in 1% carboxymethylcellulose.

The subject of data set [2] is oedema induced in the rat's paw by carrageenin. As to the kind of experiment: Antiinflammatory activity in the test of plantar edema by carrageenin. As to conditions: for ED30: Rattus norvegicus, po; for antiinflammatory activity (in words): comparison with piroxicam, rat. The data set is classed as in vivo, Crl: CD(SD) male rats. On the procedure:
Crl: CD(SD) male rats, weighing 170-205 g, previously subjected to an acclimation period of at least one week through housing in environment with co.stant thermohygrometric conditions and fa sting with water ad libitum 18 hours before the start of the test, have been distributed "at ran dom" in groups of 5-6 animals each (4 groups cor responding to 4 different dose levels for each compound). A group of control animals has been treated only with the vehicle. […] Soc. Exp. Biol. Med. 111, 544, 1962). The volume of the treated paw has been measured by means of a water-mercury pletismometer according to Leuce P., Arch. Int. Pharmacodyn. 136, 237, 1962) immediately before and at different […] injection of the phlogogenic agent. The results have been expressed as ED30 values calculated on the logarithmic regression straight lines of the percent dose/inhibition of the oedema development, in turn determined from the ratio between the mean AUC value (area under the curve representing the development of the paw volume in the time) in the different treated animals groups and the respective control groups.

The test system of data set [3] is gastric mucosa. As to the kind of experiment: Gastrolesive activity (macroscopic control of the gastric mucosa). The data set is classed as in vivo, Crl: CD(SD) male rats. The settings on record: for Therapeutic index UD3/ED30 / Gastrolesive activity UD3: oral route, exp. session I and II (r4-r7); for Therapeutic index UD3/ED30: rat; for Gastrolesive activity UD3: dose expected to give gastric lesion of total extension of 3 mm, 7 hours after administration; for improvement of tolerability (in words): versus parent compound piroxicam. An excerpt: On the ground of such lines the calculation of UD3 values, that is a dose whereby a gastric lesion of the total extension of 3 mm is expected, has been performed.

Data set [4] has as its system male mice IVA:NMRI (SPF). As to the kind of experiment: Acute toxicity by single oral administration. The data set is classed as in vivo. The settings on record: versus piroxicam. The method, then: as §1
The test system of data set [5] is plantar oedema by nystatin in the rat. As to the kind of experiment: Plantar oedema by nystatin. The data set is classed as in vivo. The settings on record: on molar basis, times as active as piroxicam. The text has this: (§2) In other tests of direct comparison between piro xicam and CHF 1021, the latter confirmed its anti inflammatory activity, along with a good analgesic and antipiretic activity.

Data set [6] deals with erythema by U.V. in the guinea pig. As to the kind of experiment: Erythema by U.V. Format: in vivo. As to conditions: on molar basis, times as active as piroxicam.
From the text: as §2

Data set [7] deals with writhing test by phenylquinone in the mouse. Description: Writhing test by phenylquinone. Format: in vivo. The settings on record: on molar basis, times as active as piroxicam.
From the text: as §2

The subject of data set [8] is fever by beer's yeast. Description: Fever by beer's yeast. Format: in vivo, reat. The settings on record: on molar basis, times as active as piroxicam.
From the text: as §2

Data set [9] deals with arthritis by adjuvant in the rat. As to the kind of experiment: Arthritis by adjuvant. The data set is classed as in vivo. The settings on record: direct comparison with piroxicam.
From the text: as §2

A short description of data set [10]: Preliminary clinical data. Format: in vivo.
Where [11] appears, read: 1 hour before carrageenin, from inhibition of oedema AUC, exp. session I and II (r4-r7).
[12] abbreviates: single administration, oral route, fasting male mice, suspended in 1% carboxymethylcellulose, interpolation on Probit paper, read-out: Approx. LD50.

Like-named read-outs stand apart in the source and are kept apart here.

Turning to `CCCCC(=O)OC1=C(C(=O)Nc2ccccn2)N(C)S(=O)(=O)c2ccccc21` [CHF 1109], in [1] (po), the LD50 was 1100 mg/kg. The same compound returned an ED30 in data set [2] (setting [11]) of 7 µmol/kg. Moreover, in [2] (oral route), the “antiinflammatory activity (in words)” value was “analogous or also slightly higher than the one of the parent compound”. In data set [3], the “Therapeutic index UD3/ED30” value was found to be 4.0, the “Gastrolesive activity UD3” value stood at 28.2 µmol/kg and the “improvement of tolerability (in words)” value is “do not show an improvement”.
As for `CN1C(C(=O)Nc2nccs2)=C(OC(=O)C(C)(C)C)c2ccccc2S1(=O)=O` [CHF 1047, 4-pivaloyloxy-2-methyl-2H-1,2-benzothiazine-3-[N-(2-thiazolyl)-carboxamide]-1,1-dioxide], the LD50 in data set [1] (setting [12]) was > 3000 mg/kg. In [2] (setting [11]), the ED30 was ~762 µmol/kg. In addition, the “antiinflammatory activity (in words)” value in data set [2] (oral route) is given as “very low”. Also, in data set [3], the “Therapeutic index UD3/ED30” value is recorded as 0.2 and the “Gastrolesive activity UD3” value worked out at 121.2 µmol/kg.
The compound `CCCC(=O)OC1=C(C(=O)Nc2ccccn2)N(C)S(=O)(=O)c2ccccc21` [CHF 1115] registered an LD50 in data set [1] (po) of 880 mg/kg. In [2] (setting [11]), this compound displayed an ED30 of 5.7 µmol/kg. Moreover, the “antiinflammatory activity (in words)” value in data set [2] (oral route) is reported as “analogous or also slightly higher than the one of the parent compound”. Also, in data set [3], the “Therapeutic index UD3/ED30” value is listed as 4.2, the “Gastrolesive activity UD3” value was 23.9 µmol/kg and the “improvement of tolerability (in words)” value is listed as “do not show an improvement”. The ulcerogenic potency ratio in data set [3] (ratio to piroxicam taken as 1) stood at 0.88.
Take `CN1C(C(=O)Nc2ccccn2)=C(OC(=O)C(C)(C)C)c2ccccc2S1(=O)=O` [CHF 1021, 4-Pivaloyloxy-2-methyl-2H-1,2-benzothiazine-3-[N-(2-pyridyl)-carboxamide]-1,1-dioxide]: the median lethal dose (LD50) in [1] (setting [12]) turned out to be 1800 mg/kg. Moreover, in data set [4], the “acute toxicity, lower in comparison to the reference compound” value is “about 35%”. This compound also yielded an ED30 in data set [2] (setting [11]) of 7.9 µmol/kg. Further, the “antiinflammatory activity (in words)” value in data set [2] (oral route) is “comparable to the one of the reference compound”. In [3], the “Therapeutic index UD3/ED30” value came to 12.3. Also, in data set [3], the “Gastrolesive activity UD3” value is 97.2 µmol/kg. The “ulcerogenic activity, times lower in comparison to the reference compound” value in [3] (versus piroxicam) was “at least 10 times”. The “potency ratio (ratio between ED50 values)” value in data set [5] was 1.52; in data set [6] it was 0.49; in data set [7] it was 0.72; in data set [8], 0.71. The “activity on the arthritis by adjuvant (in words)” value in [9] is on record as “almost equally active”. In [10], the “antiinflammatory activity in comparison with piroxicam (in words)” value is “practically equally active”. Also, in [10] (fraction of that of piroxicam), the “incidence of side effects relative to the reference drug” value was “about 1/3”.
As for `CN1C(C(=O)Nc2ccccn2)=C(O)c2ccccc2S1(=O)=O` [piroxicam, reference compound], in data set [1] (setting [12]), the LD50 worked out at 345 mg/kg. In data set [2] (setting [11]), this compound had an ED30 of 7.8 µmol/kg. For the same compound, in data set [2] (oral route, 1 hour before carrageenin, from inhibition of oedema AUC, exp. session I and II (r4-r7)), the “Antiinflammatory activity ED30” value turned out to be 9.7 µmol/kg.
